Data as given in PubChem BioAssay AID179 (DTP/NCI, 2004).
Several values for one entry are separate records, joined by “and”; a condition that tells them apart may be missing. Equal entries are not always repeated. Activity calls are given as the source filed them.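 How the source made its calls: active means compounds giving half or more protection of infected cells from virus-caused growth loss, again on retest; inactive means the rest.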

System: CEM cells HIV-1 protection, formazan growth assay
Assay: NCI AIDS Antiviral Assay
Settings: for IC50: measured here: growth of uninfected CEM cells
In short: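 Soluble formazan readout of cell growth; CEM cells ± HIV-1; 5 drug concs. ≥50% protection → retest; ≥50% again = moderately active; reproducible 100% = confirmed active.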

Structure (SMILES) | EC50 | IC50 | outcome
CSC(=NC(=O)c1ccccc1)SCCSC(=NC(=O)c1ccccc1)SC | > 2.34 µM | > 2.34 µM | –
CC(C)(C)OC(=O)c1ccc(NCC2=CC(=O)C=CC2=O)cc1 | > 200 µM | 10.2 µM | –
O=C(CC(O)(C(F)(F)F)C(F)(F)F)c1ccc(-c2ccccc2)cc1 | > 200 µM | 33.9 µM | –
O=[N+]([O-])c1ccc2n[nH]nc2c1 | > 200 µM | 182 µM | –
CC(=O)CC(C)=O.CCN(CC)CC[C-]=O.[Pd+2] | > 200 µM | 5.89 µM | –
C[Si](C)(C)C#CC#C[Si](C)(C)C.[Ni].[Ni].[Ni].[Ni].[c-]1[c-][c-][cH-][c-]1.[c-]1[c-][c-][cH-][c-]1.[c-]1[c-][c-][cH-][c-]1.[c-]1[c-][c-][cH-][c-]1 | > 2.09 µM | > 2.09 µM | –
CC1=C(C#N)C2(C(=O)N(C)c3ccccc32)C(C#N)=C(C)N1 | > 324 µM | 27.5 µM | –
NCCC1([N+](=O)[O-])CCNCC1 | > 200 µM | > 200 µM | –
O=C(Nc1ccc([N+](=O)[O-])cn1)Nc1cc([N+](=O)[O-])ccc1F | > 200 µM | 17.4 µM | –
O=c1cc(N=Nc2ccc(Cl)c(Cl)c2)[nH]c(=O)[nH]1 | > 2 µM | 1.55 µM | –
O=C1C2CCN(CC2)C1CN1CCOCC1 (configuration not stated) | – | – | inactive
CC1(CO)OC(n2cnc3c(N)ncnc32)C(O)C1O (configuration not stated) | > 891 µM | > 891 µM | –
COc1ccc(CCn2cnc3ccccc32)cc1 | > 200 µM | > 200 µM | –
CC1=NN(c2ccccc2)[As]2ON=C(c3ccc(Cl)cc3)C12 (configuration not stated) | – | – | inactive
O=C(/C=C/c1cc(O)ccc1O)OCCc1ccccc1 | > 45.7 µM | 6.17 µM | –
COc1ccc2c(c1)OC[C@@H]1c3cc(NS(=O)(=O)c4ccccc4)cc(OC)c3O[C@H]21 | > 200 µM | 18.2 µM | –
c1ccc(-c2c[se]nn2)cc1 | > 174 µM | 93.3 µM | –
COCCOCCOCCOCCOCCOCCOCCOCCOCCOCCOCCOCCOCCOCCOCCOCCOCC(=O)N(CCn1ccc(NC(c2ccccc2)(c2ccccc2)c2ccccc2)nc1=O)CCn1ccc(NC(c2ccccc2)(c2ccccc2)c2ccccc2)nc1=O | 20 µM | 22.9 µM | –
COc1ccc(C(c2ccc(C(C)C)cc(OC)c2=O)c2ccc(C(C)C)cc(OC)c2=O)cc1 | – | – | inactive
CC1=C(C(=O)NCCCN(CCO)CCO)CC(C(=O)NCCCN(CCO)CCO)=C(C)N1 | > 200 µM | 112 µM | –
CCOC(=O)C1=C(C)NC(=O)NC1c1ccc(OC)cc1OC (configuration not stated) | > 30.9 µM | > 30.9 µM | –
CN(C)C=Nc1cccc2nsnc12 | > 200 µM | > 200 µM | –
O=C1NCN(c2ccccc2)C12CCN(CC1COc3ccccc3O1)CC2 (configuration not stated) | > 200 µM | > 200 µM | –

Structure (SMILES) | EC50 | IC50 | outcome
ClC(Cl)=C1C(=C(Cl)Cl)C(Cl)(Cl)C1(Cl)Cl | > 52.5 µM | 2.82 µM | –
CCc1c(Cc2ccccc2)n(COCCC[Se]c2ccccc2)c(=O)[nH]c1=O | 2.82 µM | 18.2 µM | –
O=C1NC(=S)S/C1=C/c1ccco1 | > 123 µM | 72.4 µM | –
C=C(C)CCC1CCCCC(CN(C)C)C1=O (configuration not stated) | > 200 µM | 110 µM | –
O=C1C(CN2CCOCC2)CCCC1CN1CCOCC1 (configuration not stated) | > 4270 µM | 1.35 µM | inactive
CCCC/C=C(\CCCNCCCC)[Si](C)(C)C | > 479 µM | 178 µM | –
CC(=O)N=C1N(/C=C2\C(=O)Oc3ccccc3C2=O)C(=O)/C(=C/c2ccc(OC(C)=O)cc2)N1C | > 200 µM | 107 µM | –
CNc1cc([N+](=O)[O-])ccc1C(=O)N1CCC[C@H]1CO | > 200 µM | > 200 µM | –
CC1C/C(=C\c2ccc(OC(=O)C(C)(C)C)cc2)C(=O)/C(=C/c2ccc(OC(=O)C(C)(C)C)cc2)C1 (configuration not stated) | > 50.1 µM | 22.4 µM | –
CC(=O)C(C)(O)C(OP(=O)(O)O)c1ccccc1 (configuration not stated) | > 200 µM | > 200 µM | –
Nc1nc(Br)nc2ncn(C3CC(O)C(CO)O3)c12 (configuration not stated) | > 200 µM | 7.41 µM | –
N#Cc1c(N2CCCC2)[nH]c(=O)n(-c2ccccc2)c1=S | > 200 µM | > 200 µM | –
Cc1n[nH]c2ccc([N+](=O)[O-])cc2c1=O | > 57.5 µM | > 57.5 µM | –
CC(=O)Nc1cc2cc(NS(=O)(=O)c3ccc(Cl)c(Cl)c3)ccc2oc1=O | > 47.9 µM | > 47.9 µM | –
COC(=O)C1(Cc2ccc3c(c2)CCC3)Cc2ccccc2C1=O (configuration not stated) | > 200 µM | 10.7 µM | –
CC(C)C(OC(=O)c1ccc(NCC2=CC(=O)C=CC2=O)cc1)C(C)C | > 20 µM | 9.12 µM | –
CC1CCC2(CC1)CC(=O)N(N1CCCCC1)C2=O (configuration not stated) | > 200 µM | > 200 µM | –
CC(=O)Oc1ccn2nc(C)c(Cc3c(C)nn4ccc(OC(C)=O)cc34)c2c1 | > 200 µM | 28.2 µM | –
CCN(CC)CCCC(C)Nc1cc(/C=C/c2ccc(Cl)cc2)nc2cc(N(C)C)ccc12 (configuration not stated) | > 145 µM | 0.871 µM | –
Cc1cc2nnn(C3CCCCO3)c2cc1C (configuration not stated) | > 200 µM | 174 µM | –
c1ccc([P+](c2ccccc2)(c2ccccc2)C2c3ccccc3-c3ccccc32)cc1 | > 200 µM | 10.7 µM | –
O=C1OC(CC(=O)c2ccc(Cl)c(Cl)c2)C(Cl)=C1Cl (configuration not stated) | > 75.9 µM | > 75.9 µM | –
NC(=O)C1=Cc2cccn2-c2ccccc2S1 | > 123 µM | 56.2 µM | –

Structure (SMILES) | EC50 | IC50 | outcome
Cc1cccc2c1C/C(=C\c1cccc(C)c1C(=O)O)C2=O | – | – | inactive
COc1cc(C2(C#N)CCN(C)CC2)cc(OC)c1OC | > 871 µM | 437 µM | –
N#CC1=C(c2ccccc2)C(=C2Nc3ccccc3N2)C2S/C(=C\c3ccccc3)C(=O)N2C1=N (configuration not stated) | > 2.19 µM | > 2.19 µM | –
CCOC(=O)c1c(-c2ccc(O)c(OC)c2)c(C#N)c(=S)n(C2OC(COC(C)=O)C(OC(C)=O)C(OC(C)=O)C2OC(C)=O)c1-c1ccccc1 (configuration not stated) | > 200 µM | 91.2 µM and 64.6 µM | –
CCOC(=O)/C(=C\c1ccc(C(F)(F)F)cc1)[Se]c1ccccc1 | > 18.2 µM | > 18.2 µM | –
COC(=O)c1cc(CC2Cc3cc4c(cc3C2)CCC4)cc2c1CCC2 | > 200 µM | > 200 µM | –
CC[N+](C)(CC)CCSC1=Nc2ccccc2N=C(c2ccc(Sc3ccccc3)cc2)C1 | > 200 µM | 6.76 µM | –
CCOC(=O)CCC(NC(=O)c1ccc(Nc2nc3ccccc3nc2C(=O)OCC)cc1)C(=O)OCC (configuration not stated) | > 138 µM | 85.1 µM | –
COc1cc(C(=O)C/C(CCC(=O)Nc2ccccc2[N+](=O)[O-])=N\NC(=O)C(N)=O)ccc1O | > 145 µM | > 145 µM | –
CC1=C(C(=O)N(C(C)C)C(C)C)CC(C(=O)N(C(C)C)C(C)C)=C(C)N1 | > 200 µM | 120 µM | –
O=c1[nH]cc(/C=N\OCCP(=O)(O)O)c(=O)[nH]1 | > 200 µM | > 200 µM | –
C[C@]12CC[C@H](O)CC1=CCC1C2CC[C@@]2(C)C1CC[C@@H]2COS(=O)(=O)O (some centres not stated) | > 61.7 µM | > 61.7 µM | –
C=C1OC(OC)CC(N)C1O (configuration not stated) | – | – | inactive
CC1=CC(O)(c2ccccc2)C(N2CCOCC2)N1O (configuration not stated) | > 200 µM | > 200 µM | –
O=C1OC2(c3ccccc31)c1ccccc1-c1ccccc12 | > 66.1 µM | > 66.1 µM | –
OC1(C#CCN2CCCC2)c2ccccc2Sc2ccccc21.[C-]#[O+].[C-]#[O+].[C-]#[O+].[C-]#[O+].[C-]#[O+].[C-]#[O+].[Co].[Co] | > 200 µM | 4.17 µM | –
O=S1(=O)CC2C1C1(c3ccccc3)OC2(c2ccccc2)c2ccccc21 (configuration not stated) | > 200 µM | 20 µM | –
Cc1ccc(/C=N/Nc2nncc3ccccc23)s1 | > 200 µM | > 200 µM | –
Cc1cc(N(CCC#N)S(C)(=O)=O)ccc1C=O | > 933 µM | > 933 µM | –
O=c1[nH]cnc2c1nnn2CCCn1nnc2c(=O)[nH]cnc21 | > 200 µM | > 200 µM | –
CN(C)c1ccc(/C=C/C(=O)C(C)(C)C)cc1 | – | – | inactive
CC(C)(C)C(=O)/C=C/c1cccc([N+](=O)[O-])c1 | > 58.9 µM | 8.71 µM | –
CCC(=O)C(C)C(=O)C(=O)NCCNC(=O)C(=O)C(C)C(=O)CC (configuration not stated) | – | – | inactive

Structure (SMILES) | EC50 | IC50 | outcome
Cc1ccccc1NC(=O)CC(=O)NNC(Sc1ccccc1)c1cc(N=Nc2ccc(Br)cc2)ccc1O (configuration not stated) | > 100 µM | 1.23 µM | –
COCN1C(=O)[C@@H]2CCCN2C(=O)c2ccc(Cl)cc21 | > 200 µM | > 200 µM | –
Nc1nc(=O)n(C2OC(CO)C(O)C2Cl)cc1I (configuration not stated) | > 200 µM | 1.17 µM | –
c1ccc2c(-c3cccc4ccccc34)cccc2c1 | > 200 µM | > 200 µM | –
COC(=O)C12OC(C)(C(CC(=O)OC(C)(C)C)C1=O)C1C(=O)N(c3ccccc3)C(=O)C12 (configuration not stated) | > 200 µM | > 200 µM | –
CC(C)(C)C#C[P+](c1ccccc1)(c1ccccc1)c1ccccc1 | > 2 µM | 0.012 µM | –
O=c1oc2ccccc2c(-c2ccc(O)cc2)c1Oc1ccc(Cl)cc1 | – | – | inactive
CC1NC(=O)c2cc(=O)[nH]c(O)c21 (configuration not stated) | > 513 µM | 398 µM | –
Cc1nc(Nc2ccc(Cl)c(Cl)c2)sc1C(=O)/C=C/c1ccc2c(c1)OCO2 | > 200 µM | 13.5 µM | –
CCOC(=O)C(C(O)c1ccc([N+](=O)[O-])cc1)P(=O)(OCC)OCC (configuration not stated) | > 661 µM | 93.3 µM | –
c1ccc2c(c1)OCc1nccn1-2 | > 200 µM | 97.7 µM | –
CSSC(SC)SC | > 200 µM | 33.1 µM | –
CC(=O)O[C@H]1CCC2[C@@H]3CCC4Nc5[nH]ncc5C[C@]4(C)C3CC[C@@]21C (some centres not stated) | – | – | inactive
COc1cc2c3c(c1OC)-c1ccccc1C(C(O)c1ccccc1)C3N(C)CC2 (configuration not stated) | – | – | inactive
CCOC(=O)C1=C(N)Oc2cc(O)cc(O)c2C1c1ccccc1 (configuration not stated) | – | – | inactive
COc1cc(NCc2ccc3nc(-c4ccccc4)c(N)nc3c2)cc(OC)c1OC | > 200 µM | 49 µM | –
CCN(CC)CCOC(NC(C)=O)(c1ccccc1)c1ccccc1 | > 200 µM | > 200 µM | –
CS(=O)(=O)Nc1ccc2oc(=O)c3ccccc3c2c1 | > 200 µM | 24 µM | –
Cc1ccc(Sc2ccccc2[N+](=O)[O-])cc1 | – | – | inactive
COc1cc(C(O)CCBr)c(OC)cc1C (configuration not stated) | > 200 µM | 2.29 µM | –
